≈ marks a conversion by molar mass, not a printed value.
Experiments:
[1] = system: Mycobacterium tuberculosis; test: Antitubercular activity against Mycobacterium tuberculosis H37Ra ATCC 25177 by XTT Reduction Menadione Assay; type: functional, organism-based
[2] = Selectivity index, ratio of GI50 for human HeLa cells to MIC for Mycobacterium tuberculosis H37Ra ATCC 25177; type: toxicity, cell-based; details: pooled result: one value given for 3 cell lines, strains, targets or settings, read-out: Selectivity Index
[3] = Selectivity index, ratio of GI50 for human HeLa cells to MIC for Mycobacterium bovis BCG ATCC 35743; type: toxicity, cell-based; details: pooled result: one value given for 3 cell lines, strains, targets or settings, read-out: Selectivity Index
[4] = system: Mycobacterium tuberculosis; test: Antitubercular activity against Mycobacterium tuberculosis H37Ra ATCC 25177 at 30 ug/ml by XTT Reduction Menadione Assay; type: functional
[5] = system: Mycobacterium tuberculosis; test: Antitubercular activity against Mycobacterium tuberculosis H37Ra ATCC 25177 at 10 ug/ml by XTT Reduction Menadione Assay; type: functional
[6] = system: Mycobacterium tuberculosis; test: Antitubercular activity against Mycobacterium tuberculosis H37Ra ATCC 25177 at 3 ug/ml by XTT Reduction Menadione Assay; type: functional
[7] = Antioxidant activity assessed as DPPH radical scavenging activity by spectrophotometric assay; type: physicochemical
A549 [8] = test: Antiproliferative activity against human A549 cells at 30 ug/ml after 48 hrs by MTT assay; type: cell-based; details: a549, 48 h
A549 [9] = test: Antiproliferative activity against human A549 cells at 10 ug/ml after 48 hrs by MTT assay; type: cell-based; details: a549, 48 h
A549 [10] = test: Antiproliferative activity against human A549 cells at 3 ug/ml after 48 hrs by MTT assay; type: cell-based; details: a549, 48 h
A-431 [11] = test: Antiproliferative activity against human A431 cells at 30 ug/ml after 48 hrs by MTT assay; type: cell-based; details: a-431, 48 h
A-431 [12] = test: Antiproliferative activity against human A431 cells at 10 ug/ml after 48 hrs by MTT assay; type: cell-based; details: a-431, 48 h
A-431 [13] = test: Antiproliferative activity against human A431 cells at 3 ug/ml after 48 hrs by MTT assay; type: cell-based; details: a-431, 48 h
HeLa [14] = test: Antiproliferative activity against human HeLa cells at 30 ug/ml after 72 hrs by MTT assay; type: cell-based
HeLa [15] = test: Antiproliferative activity against human HeLa cells at 10 ug/ml after 72 hrs by MTT assay; type: cell-based
HeLa [16] = test: Antiproliferative activity against human HeLa cells at 3 ug/ml after 72 hrs by MTT assay; type: cell-based
[17] = (§1) Cytotoxicity against human A549 cells assessed as growth inhibition after 48 hrs by MTT assay; type: cell-based; details: A549 cells
A549 [18] = test: as §1; type: cell-based; details: a549, 48 h
[19] = (§2) Cytotoxicity against human HeLa cells assessed as growth inhibition after 72 hrs by MTT assay; type: cell-based; details: HeLa cells
HeLa [20] = test: as §2; type: cell-based; details: hela, 72 h
[21] = Cytotoxicity against human A431 cells assessed as growth inhibition after 48 hrs by MTT assay; type: cell-based, A-431

Compound	IC50 [1]	MIC [1]	inhibition at 30 µg/mL [4]	inhibition at 10 µg/mL [5]	inhibition at 3 µg/mL [6]	IC50 [7]	Activity (A549 [8])	Activity (A549 [9])	Activity (A549 [10])	Activity (A-431 [11])	Activity (A-431 [12])	Activity (A-431 [13])	Activity (HeLa [14])	Activity (HeLa [15])	Activity (HeLa [16])	GI50 at 48 h [17]	MIC (A549 [18])	GI50 at 72 h [19]	GI50 (HeLa [20])	GI50 at 48 h [21]	further results
NNC(=O)c1ccncc1 [ISONIAZID]	0.0025 µg/mL (≈ 0.0182 µM)	0.075 µg/mL (≈ 0.547 µM)	–	–	–	–	–	–	–	–	–	–	–	–	–	–	–	–	–	–	selectivity ratio [2]: 1330; selectivity ratio [3]: 2220
O=C1CSc2ccccc2N1Cc1cn(Cc2ccccc2)nn1	9.11 µg/mL (≈ 27.1 µM)	> 30 µg/mL	82.2%	59.3%	-15.4%	36.26 µg/mL (≈ 108 µM)	25.91%	-9.82%	-7.85%	-10.8%	-37.2%	0%	39.6%	8.8%	0%	> 30 µg/mL	> 30 µg/mL	> 30 µg/mL	> 30 µg/mL	> 30 µg/mL	–
O=C1CSc2ccccc2N1Cc1cn(Cc2cccc([N+](=O)[O-])c2)nn1	12.4 µg/mL (≈ 32.4 µM)	> 30 µg/mL	60.2%	48.9%	34.8%	34.12 µg/mL (≈ 89.5 µM)	-11.78%	0%	-9.71%	15.6%	16.5%	13.9%	20.1%	-3%	0%	> 30 µg/mL	> 30 µg/mL	> 30 µg/mL	> 30 µg/mL	> 30 µg/mL	–
Cc1cc(C(C)(C)C)c(O)c(C(C)(C)C)c1 [BUTYLATED HYDROXYTOLUENE]	–	–	–	–	–	16.47 µg/mL (≈ 74.7 µM)	–	–	–	–	–	–	–	–	–	–	–	–	–	–	–
O=C1CSc2ccccc2N1Cc1cn(Cc2ccc([N+](=O)[O-])cc2)nn1	9.2 µg/mL (≈ 24.1 µM)	> 30 µg/mL	70.6%	52.9%	9.8%	27.4 µg/mL (≈ 71.8 µM)	8.43%	17.56%	0%	44.7%	12.9%	10.8%	55.5%	53.2%	36.5%	> 30 µg/mL	> 30 µg/mL	> 30 µg/mL	> 30 µg/mL	> 30 µg/mL	selectivity ratio [2]: 1; selectivity ratio [3]: 1.02
O=C1CSc2ccccc2N1Cc1cn(Cc2ccc(Cl)cc2)nn1	2.67 µg/mL (≈ 7.2 µM)	> 30 µg/mL	65.8%	75.3%	52.1%	44.29 µg/mL (≈ 119 µM)	51.91%	4.35%	3.6%	61.5%	40.9%	35%	45.1%	29.6%	41.9%	29.9 µg/mL (≈ 80.7 µM)	> 30 µg/mL	> 30 µg/mL	> 30 µg/mL	27.3 µg/mL (≈ 73.6 µM)	–
CO[C@H]1/C=C/O[C@@]2(C)Oc3c(C)c(O)c4c(O)c(c(/C=N/N5CCN(C)CC5)c(O)c4c3C2=O)NC(=O)/C(C)=C\C=C\[C@H](C)[C@H](O)[C@@H](C)[C@@H](O)[C@@H](C)[C@H](OC(C)=O)[C@@H]1C [RIFAMPIN]	–	0.043 µg/mL (≈ 0.0523 µM)	–	–	–	–	–	–	–	–	–	–	–	–	–	–	–	–	–	–	selectivity ratio [2]: 2330; selectivity ratio [3]: 2440
O=C1CSc2ccccc2N1Cc1cn(Cc2ccccc2Cl)nn1	> 30 µg/mL	> 30 µg/mL	37.8%	74.9%	41.9%	16.35 µg/mL (≈ 44.1 µM)	23.34%	-8.41%	4.19%	31.4%	29.6%	15.4%	55.9%	38.6%	48.1%	> 30 µg/mL	> 30 µg/mL	> 30 µg/mL	> 30 µg/mL	> 30 µg/mL	–
O=C1CSc2ccccc2N1Cc1cn(-c2ccc([N+](=O)[O-])cc2)nn1	> 30 µg/mL	> 30 µg/mL	28.5%	0.3%	24.2%	44.29 µg/mL (≈ 121 µM)	38.71%	24.73%	33.22%	0%	0%	0%	35.8%	-0.9%	13.3%	> 30 µg/mL	> 30 µg/mL	> 30 µg/mL	> 30 µg/mL	> 30 µg/mL	–
CC(=O)O[C@H]1C(=O)[C@@]2(C)[C@H]([C@H](OC(=O)c3ccccc3)[C@]3(O)C[C@H](OC(=O)[C@H](O)[C@@H](NC(=O)c4ccccc4)c4ccccc4)C(C)=C1C3(C)C)[C@]1(OC(C)=O)CO[C@@H]1C[C@@H]2O [PACLITAXEL]	–	–	–	–	–	–	–	–	–	–	–	–	–	–	–	< 0.0023 µg/mL	0.039 µg/mL (≈ 0.0457 µM)	0.14 µg/mL (≈ 0.164 µM)	–	0.0023 µg/mL (≈ 0.00269 µM)	–
O=C1CSc2ccccc2N1Cc1cn(-c2cccc([N+](=O)[O-])c2)nn1	> 30 µg/mL	> 30 µg/mL	1.2%	8.7%	25.7%	47.11 µg/mL (≈ 128 µM)	22.02%	0.19%	12.32%	29.7%	25.4%	17.2%	37.5%	13.3%	11.9%	> 30 µg/mL	> 30 µg/mL	> 30 µg/mL	> 30 µg/mL	> 30 µg/mL	–
O=C1CSc2ccccc2N1Cc1cn(Cc2ccc(Br)cc2)nn1	> 30 µg/mL	> 30 µg/mL	49.8%	38.4%	58%	14.14 µg/mL (≈ 34 µM)	44.78%	-1.37%	-5.96%	35.5%	4%	8.6%	41.3%	32.9%	40.4%	> 30 µg/mL	> 30 µg/mL	> 30 µg/mL	> 30 µg/mL	> 30 µg/mL	–

From ChEMBL document CHEMBL3763138, “Synthesis and bioactivity of novel triazole incorporated benzothiazinone derivatives as antitubercular and antioxidant agent” (Bioorg Med Chem Lett, 2016)
